Columns and labels:
[1] = system: CREB-binding protein (CBP) colocalization with mHTT; assay: Co-localization of CREB-binding protein (CBP) with mHTT; format: in vivo, R6/2 mice; settings: treated animals of the R6/2 study versus untreated TG mice; p = 0.02
Description: Staining - Goat anti-Rabbit IgG (H+L) Alexa Fluor 647 (1:500, ThermoFisher Invitrogen) was used as a secondary antibody for binding to CBP antibody. DAPI (Sigma-Aldrich) was used to identify the nuclei. Goat anti-Mouse IgG (H+L), Alexa Fluor 488 (1:500, A-11034, ThermoFisher Invitrogen) was used as a secondary antibody for binding to EM48 antibody. Mouse anti-human-mHTT (EM48, 1:500, Sigma-Aldrich), was used to stain huntingtin. Rabbit anti-CBP (1:100, Sigma-Aldrich) was used a primary antibody to stain CBP.
The blocking buffer was freshly prepared and consisted of PBS (Sigma-Aldrich) with 5% normal goat serum (NGS), 0.2% BSA, 0.2% lysine and 0.2% glycine. […] On day six, samples were washed and then incubated with DAPI containing mounting medium Fluoroshield (Sigma-Aldrich), in order to counterstain the nuclei and preserve the fluorescence. […]
CBP colocalization with mHTT and quantitative assessment of the images were measured (Lee, J. et al., Acta Neuropathol. 2017 Nov;[…]:729-748; Steffan, J.S. et al., Nature. 2001 Oct 18;413(6857):739-743; Nucifora, F.C. et al., Science. 2001 Mar 23;291(5512):2423-2428). In brief, regions of interest (colocalized areas) in multi-channel images from two or three of the overlapping fluorescence dyes were selected using the Plugin CoLoc2 of FIJI. The colocalization score of identified areas was calculated. […]

[2] = Body weight in R6/2 mice of Huntington's disease; format: in vivo
Protocol: Methods ― Total of 20 female and male R6/2 mice and 10 female and male wild-type littermate control mice (WT) were used in the study. The mice were genotyped and the R6/2 mice were divided into different treatment groups based on their litter and baseline body weight. The treatment with Vehicle or Compound 22 (33 mg/kg; 5 ml/kg, i.p. QD) was started at 4 weeks of age after the baseline behavioral tests (Figure 6). Body weights were measured at 3 weeks of age and twice a week until the end of the study.
The experimental groups were: • Group 1) 10 wild-type mice (mixed gender) treated with Vehicle (5 ml/kg, i.p., QD) starting at 4 weeks of age • Group 2) 10 R6/2 mice (mixed gender) treated with Vehicle (5 ml/kg, i.p., QD) starting at 4 weeks of age • Group 3) 10 R6/2 mice (mixed gender) treated with Compound 22 (33 mg/kg; 5 ml/kg, i.p. QD) starting at 4 weeks of age
Compound Delivery and Dosing - Treatment with Compound 22 (33 mg/kg; 5 ml/kg, i.p. QD) or Vehicle was started at age week 4 and continued until the 12 weeks of age. The test articles were handled and stored and the dose formulations were prepared according to detailed instructions provided by the Sponsor.
Body Weight - Body weight was measured starting at 3 weeks of age before treatment onset and two times per week on the same day (on Monday and Friday) until the end of the study.

[3] = system: STHdh 111/111 striatal cells; assay: Cell viability after heat shock (CellTiter Glo); settings: heat shocked STHdh 111/111 versus STHdh 7/7 control cells
Protocol: Cell culture - ST HDH Q111/111 (CH00095, Coriell Institute) striatal derived cell line were grown at 33°C in DMEM (Sigma-Aldrich), supplemented with 10% fetal bovine serum (FBS), 1% Penicillin-Streptomycin (ThermoFisher Scientific), and 0.4 mg/ml G418 (Geneticin; Invitrogen). ST HDH Q111/111 are mouse striatal cells with polyQ length of 111.
Pre-Treatment of striatal cell line - First the medium was removed and new DMEM (DMEM, high glucose, HEPES, no phenol red) medium, supplemented with 10% fetal bovine serum (FBS), 1% Penicillin-Streptomycin, containing 10 µM compound was added. The cells were incubated at 33 °C for 24 hours.
Heat shock - Cells were heat shocked for 3 hours at 41 °C.
Treatment - Medium was removed and new DMEM (DMEM, high glucose, HEPES, no phenol red) medium, supplemented with 1% fetal bovine serum (FBS), 1% Penicillin-Streptomycin, containing 10 µM compound was added. The cells were incubated at 33 °C for 48 hours.
Cell Viability - Cell viability was measured according to manufacturer recommendations with CellTiter Glo (Promega).

zebrafish larvae = assay: Motility Zebrafish Model (MPP+ exposure, photomotor assay and sleep)
Protocol: Six groups were included in each experiment. Immediately after spawning, 40 embryos per group were allocated to a 24-well plate and system water (solvent) was added to all wells. […] MPP+ was prepared immediately prior to incubation and solutions were changed daily. At 120 hpf, drug treatment and MPP+ exposure was ceased and a 3X wash was performed with system water. Larvae were then relocated to 96-well plates for behavioral recording and placed in a separate recording room for 24-hour acclimation. Prior to behavioral recording, wells were fully replenished system water.
Naive group was exposed to solvent only. Vehicle group was exposed to solvent and vehicle corresponding to the vehicle of 20 µM drug solution (0.02% DMSO). MPP+ positive control was exposed to solvent and 500 µM MPP+.
Behavioral data was recorded from 1 p.m. on 6 dpf until shortly after wakening on 7 dpf. The recording consisted of a photomotor assay in which lights switch off and on in 30-minute intervals between 1 p.m. and 6 p.m., producing a consistent photomotor response. […] Upon lights being turned on again, the larvae cease movement followed by a return to baseline. This cycle is repeated five times. Following the last lights-off phase, constant illumination is presented until lights turn off at 10 p.m. for the night. Lights turn on again at 8 a.m. the following day.
Average movement frequency was measured during 30-minute lights-on phases of photomotor assay.
Distance moved (mm) was defined as the average distance moved during 30-minute lights-on phases of photomotor assay.
All data are presented as mean ± standard error of the mean (sem). For analysis of differences between groups, a Kruskal-Wallis one-way ANOVA with Dunn's multiple comparison post hoc test was performed. P < 0.05 was considered statistically significant.

phospho-Tau (Ser404) = biological target: T1, phospho-Tau (Ser404) (Mus musculus, UniProt P10637); assay: Phospho-Tau (Ser404) immunocytochemistry in STHdh 7/7 cells; format: cell-based
T1 construct: host or cells: ST HDH Q7/7 mouse striatal cell line
T1 sequence (P10637 whole entry): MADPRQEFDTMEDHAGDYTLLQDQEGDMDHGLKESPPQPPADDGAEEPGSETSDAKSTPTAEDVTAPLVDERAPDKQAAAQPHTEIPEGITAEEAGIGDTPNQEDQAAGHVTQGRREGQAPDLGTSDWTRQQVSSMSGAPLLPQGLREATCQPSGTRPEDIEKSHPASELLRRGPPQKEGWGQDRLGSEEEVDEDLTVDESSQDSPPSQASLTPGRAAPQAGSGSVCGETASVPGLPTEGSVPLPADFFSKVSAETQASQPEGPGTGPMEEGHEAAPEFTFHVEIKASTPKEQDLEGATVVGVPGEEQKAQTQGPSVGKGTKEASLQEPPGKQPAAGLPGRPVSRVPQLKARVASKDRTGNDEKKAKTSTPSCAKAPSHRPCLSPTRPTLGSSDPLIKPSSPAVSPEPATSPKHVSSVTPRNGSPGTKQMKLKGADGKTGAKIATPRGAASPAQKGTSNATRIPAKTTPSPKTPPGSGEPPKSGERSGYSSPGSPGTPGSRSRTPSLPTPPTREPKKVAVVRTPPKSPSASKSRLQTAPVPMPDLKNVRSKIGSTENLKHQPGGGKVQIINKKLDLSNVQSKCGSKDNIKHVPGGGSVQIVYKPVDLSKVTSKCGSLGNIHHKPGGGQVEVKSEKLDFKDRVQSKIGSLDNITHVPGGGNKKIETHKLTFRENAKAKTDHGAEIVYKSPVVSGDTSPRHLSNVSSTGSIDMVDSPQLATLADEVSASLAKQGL
Description: Effect of Compound 4 on Phospho-Tau (Ser396) levels - ST HDH Q7/7 (CH00097, Coriell Institute) striatal derived cell line from a knock in transgenic mouse containing HTT loci with a humanized Exon 1 containing 7 polyglutamine repeats. Diffuse mHTT quantified with immunocytochemistry as described in Example 33 with the exception that instead of 3B5H10 antibody for staining mHTT, phospho-Tau (Ser404) polyclonal antibody (ThermoFisher, Catalog 44-758G) was used to stain phospho-Tau (Ser396) and no heat shock was used.

Row | Structure (SMILES) | reduction of CBP colocalization with mHTT [1] [fold] | body weight ([2]; 33 mg/kg i.p. QD, R6/2 mice 3 to 12 weeks, versus vehicle treated R6/2 mice) | Body weight loss ([2]; female R6/2 mice at week 12, in comparison to untreated female R6/2 mice) | Body weight loss improvement ([2]; male R6/2 mice at week 12, in comparison to untreated male R6/2 mice) | cell viability at 24 hours after treatment [3] | movement frequency (zebrafish larvae; 1 µM Compound 4 with 500 µM MPP+ (naïve 40.8)) | distance moved (zebrafish larvae; 1, 10 and 20 µM co-incubated with 500 µM MPP+, compared to MPP+) | sleep parameters (sleep fragmentation, sleep ratio, velocity, wake bout duration, sleep bout duration) (zebrafish larvae; co-incubation with MPP+, between groups) | overall movement during assessment of neuroprotection (zebrafish larvae; concentrations ~10 µM and ~1 µM) | movement frequency (zebrafish larvae; drug treatment groups compared to MPP+) | Phospho-Tau (Ser404) reduction (phospho-Tau (Ser404); 10 µM, no heat shock, versus untreated STHdh 7/7) [%] | Phospho-Tau (Ser404) reduction with autophagy inhibitor (phospho-Tau (Ser404); 10 mM ammonium chloride)
1 | Cc1[nH]c2ccc(C(=O)NCCN(C(C)C)C(C)C)cc2c1C [Compound 22] | 4 | no significant differences | significantly improved | not observed | almost equivalent to the cell viability of STHdh 7/7 control cells | – | – | – | – | – | – | –
2 | CCc1c(C)[nH]c2ccc(C(=O)NCCN(CC)CC)cc12 [Compound 4, N-(2-(diethylamino)ethyl)-3-ethyl-2-methyl-1H-indole-5-carboxamide] | – | – | – | – | – | 21.0 movement bouts in 30 minutes | no significant difference | No statistically significant difference | subtle increase in overall movement | no significant difference | 40 | could not reduce
